Laboratory results from patent publication US20260355239A1, “COMBINATION OF A T CELL THERAPY AND CONTINUOUS OR INTERMITTENT DGK INHIBITOR DOSING” (Juno Therapeutics, Inc., priority 2022, published 2026).
pEC50: −log10 of the molar value.

Legend:
[1] = test system: engineered T cells for the T cell therapy; assay: In vivo anti-tumor effects and CAR T cell expansion/persistence with continuous DGKi dosing (summary of observations)
Excerpt: Without wishing to be limited by a specific mechanism of action, the results shown herein are consistent with a finding that the continuous presence of the DGKi following T cell therapy administration may prevent or reduce exhaustion in T cells of the T cell therapy, thereby improving T cell anti-tumor activity and proliferative capacity following administration.

[2] = test system: Raji lymphoma tumor cells; assay: In vivo anti-tumor effect of dosing regimens with anti-CD19 CAR T cells, Raji-rFluc NSG mice (Example 6)
Method: The in vivo anti-tumor effects of different dosing regimens for Compound 17 in combination with anti-CD19 CAR T cells were assessed.
Following CAR-T cell administration, mice received one of three different Compound 17 dosing regimens or a vehicle control (n=8 per group). Specifically, mice received Compound 17 or vehicle control once daily (i) on Days 1-14 (“Early”), (ii) on Days 14-42 (“Delayed”), or (iii) on Days 1-28 (“Continuous”) of the combination therapy. All doses of Compound 17 were 0.3 mg/kg and were administered orally. […] Flow cytometry for assessing CD4:CD8 ratio was performed at Day 15.

[3] = test system: Human venous whole blood; assay: Human Whole Blood IFN-γ Assay; type: cell-based; settings: anti-CD3 + anti-CD28, 24 h, normalized to 3 μM reference compound, read-out: INFg Whole Blood Normalized-Agonist EC50
Method: 9. Human Whole Blood IFN-γ Assay
Human venous whole blood (22.5 μL per well), obtained from healthy donors, was pre-treated with compounds for one hour at 37 °C in a humidified 95% air/5% CO2 incubator. The blood was stimulated with 2.5 μL anti-human CD3 and anti-CD28 mAb at a final concentration of 1 μg/mL each for 24 hours at 37 °C. IFN-γ in the supernatants was measured using AlphLISA kit (Cat #AL217).

[4] = test system: Raji-rFluc cells; assay: In vivo anti-tumor effect with lower CAR T cell dose, Raji-rFluc NSG mice (Example 7)
Method: The in vivo anti-tumor effects of a continuous Compound 17 dosing regimen in combination with a lower dose of CD19-directed CAR T cells were assessed.
These doses of CAR-expressing T cells were not expected to achieve complete tumor rejection.

[5] = test system: T cells; assay: T cell function and exhaustion of engineered T cells in presence of DGKi (summary of observations); type: cell-based, human
Excerpt: In some aspects, the provided methods enhance or modulate proliferation and/or activity of T cell activity associated with administration of the T cell therapy (e.g. CAR-expressing T cells).
Thus, while in some cases agents that increase or potentiate T cell activity may drive the cells to an exhausted state, it is found herein that activity of such DGKi, e.g., Compound 17, to exert a potentiating effect on T cell activity is decoupled from T cell exhaustion. In some embodiments, the provided methods involving compound administration of such DGKi, e.g., Compound 17, is capable of potentiating activity of T cells and delaying, limiting, reducing, inhibiting or preventing exhaustion.
These observations were made using a chronic stimulation assay to render T cells (e.g. CAR T cells) hypofunctional (e.g. reduced cytolysis and IL-2 secretion). Using this model, engineered T cells (e.g. CAR T cells or eTCR T cells) were examined to assess impact of DGKi, such as Compound 17, on function of the engineered T cells when present during (concurrent) or following (rescue) exposure to conditions leading to a hypofunctional, exhaustive state.

[6] = test system: anti-CD19 CAR-T cells; assay: Phenotype of chronically stimulated CAR-T cells concurrently treated; type: cell-based, human; settings: concurrent treatment 0.1-1000 nM, chronic stimulation 7 days
Excerpt: T cell compositions containing T cells expressing an exemplary anti-CD19 CAR were generated from leukapheresis samples from two healthy human adult donors by a process that included immunoaffinity-based selection of T cells by separately selecting CD4+ and CD8+ cells from the samples, resulting in two compositions enriched for CD4+ and CD8+ cells, respectively, per donor. Cells of the enriched CD4+ and CD8+ compositions were separately activated with anti-CD3/anti-CD28 beads and subjected to lentiviral transduction with a vector encoding an anti-CD19 CAR. The anti-CD19 CAR contained an anti-CD19 single-chain variable fragment (scFv) derived from a murine antibody (variable region derived from FMC63), an immunoglobulin-derived spacer, a transmembrane domain derived from CD28, a costimulatory region derived from 4-1BB, and a CD3-zeta intracellular signaling domain. The expression construct in the viral vector further contained sequences encoding a surrogate surface marker for CAR expression, which was separated from the CAR-encoding sequence by a T2A ribosome skip sequence. Transduced CD4+ or CD8+ T cell populations then were separately incubated in the presence of stimulating reagents for cell expansion. Expanded CD4+ and CD8+ cells were formulated and cryopreserved separately and stored. […]

[7] = test system: Granta-519 tumor spheroids; assay: Rescue treatment: cytolytic activity of chronically stimulated CAR-T cells, 3D spheroids, Granta-519; type: cell-based, human; settings: day 9
[8] = test system: A549.CD19 tumor spheroids; assay: Rescue treatment: cytolytic activity of chronically stimulated CAR-T cells, 3D spheroids, A549.CD19; type: cell-based, human; settings: day 9
[9] = 0.3 mg/kg oral once daily from Day 1, relative to vehicle
[10] = 0.3 or 0.6 mg/kg oral once daily Days 1-30 with 0.5×10^6 or 1×10^6 CAR T cells, vs CAR T cells alone

`CC[C@H]1CN([C@@H](CC)c2ccc(C(F)(F)F)cc2)[C@H](CC)CN1c1nc(=O)n(C)c2ccc(C#N)nc12` [Compound 17, 4-((2S,5R)-2,5-diethyl-4-((S)-1-(4-(trifluoromethyl)phenyl)propyl)piperazin-1-yl)-1-methyl-2-oxo-1,2-dihydropyrido[3,2-d]pyrimidine-6-carbonitrile] was tested, and the “in vivo anti-tumor effects” value ([1]; continuous dosing, at least once daily for a plurality of consecutive days, with engineered T cells) was “improves in vivo anti-tumor effects”, the “CAR T cell expansion and/or persistence” value ([1]; continuous presence of DGKi beginning on same day as T cell therapy) was “can improve CAR T cell expansion and/or persistence, in particular that of CD4+ CAR T cells” and the “tumor suppression (tumor control index), Early regimen” value ([2]; 0.3 mg/kg oral once daily Days 1-14 with CAR T cells, relative to vehicle) was “enhanced tumor suppression”. For the same compound, the “survival, Continuous regimen” value ([2]; 0.3 mg/kg oral once daily Days 1-28 with 1×10^6 CAR T cells) was “improved survival”, the “tumor burden, Continuous regimen” value ([2]; 0.3 mg/kg oral once daily Days 1-28 with CAR T cells) was “reduced tumor burden” and the “tumor suppression (tumor control index), Continuous regimen” value ([2]; 0.3 mg/kg oral once daily Days 1-28 with CAR T cells, relative to vehicle) was “enhanced tumor suppression”. For the same compound, the “tumor suppression (tumor control index), Delayed regimen” value ([2]; 0.3 mg/kg oral once daily Days 14-42 with CAR T cells, relative to vehicle) was “did not”, the “CAR T cell expansion, Day 15, Early or Continuous regimen” value [2, 9] was “increased CAR T cell expansion” and the “CD4:CD8 ratio, Day 15, Early or Continuous regimen” value [2, 9] was “increase in CD4:CD8 ratio”. The “CAR T cell expansion and CD4:CD8 ratio, Day 15, Delayed regimen” value ([2]; single 0.3 mg/kg oral dose, relative to vehicle) was “did not”, the pEC50 [3] was 7.70 and the “CAR T cell expansion and/or persistence” value ([4]; 0.3 or 0.6 mg/kg oral once daily Days 1-30, all groups) was “increased CAR T cell expansion and/or persistence in all groups”. The survival [4, 10] was “improved survival in all groups”, the tumor burden [4, 10] was “lowered tumor burden” and the “tumor suppression (tumor control index)” value [4, 10] was “enhanced tumor suppression in all groups”. The “CAR T cell expansion, lower CAR T cell dose” value ([4]; 0.5×10^6 CAR T cells + 0.3 mg/kg, relative to higher CAR T cell dose in combination with Compound 17) was “CAR T cell expansion was delayed”, the “circulating CAR T cell counts, lower CAR T cell dose” value ([4]; 0.5×10^6 CAR T cells + 0.3 mg/kg, vs higher CAR T cell dose alone) was “later exceeded circulating CAR T cell counts for the group that received the higher CAR T cell dose alone” and the “T cell function (cytokine production, cytotoxicity, expansion, proliferation, persistence)” value [5] was “improves T cell function”. For the same compound, the “effect on T cell exhaustion” value ([5]; chronic (long-term) stimulation) was “reverse, delay, or prevent T cell exhaustion”, the “populations of highly activated CAR-T cells (CD69 and PD-1 high)” value [6] was “increased populations of highly activated CAR-T cells” and the “cytolytic activity of CAR T cells against Granta-519 spheroids” value [7] was “improved the cytolytic activity of CAR T cells against both A549.CD19 and Granta-519 tumor spheroids”. The “cytolytic activity of CAR T cells against A549.CD19 spheroids” value [8] was “improved the cytolytic activity of CAR T cells against both A549.CD19 and Granta-519 tumor spheroids”.
